Where two headings read alike, the source gives them in different places.
Experiments:
[1] = tested on: Amaranthus retroflexus; assay: In planta growth experiment, A. retroflexus; format: in vivo; conditions: shoots sprayed, 3 mM
Source text: Seeds of Amaranthus retroflexus L. (Herbiseed, Twyford, UK) and Brassica napus L. cv. Mozart (Norddeutsche Pflanzenzucht Hans-Georg Lembke KG, Holtsee, Germany) were sown in vermiculite for germination. When cotyledons were fully expanded, seedlings were transplanted into plastic pots with a volume of 0.230 L filled with a substrate containing 50% bottom ash (0–4 mm), 30% peat and 20% pumice gravel (0–4 mm). Plants were watered every other day with 0.03% Hakaphos® Grün solution (Compo Expert GmbH, Münster, Germany) by sub-irrigation. Plants were grown in a climate chamber at 22 °C/20 °C day/night temperature and a day/night length of 16 h/8 h. Relative humidity was adjusted to 70% and light intensity was 320 μmol m^−2 s^−1 PAR (Photosynthetically Active Radiation) at plant level.
When seedlings reached the two-leaf growth stage, plant shoots were sprayed from the top with treatment solutions using spray bottles with a spraying angle of 35° (10 ml, neoLab Migge Laborbedarf-Vertriebs GmbH, Heidelberg, Germany). Treatment solutions were applied from a height of 8.5 cm above the pots. Each pot was sprayed once with a solution volume of 0.135 ml. Treatment solutions contained 2.4% (v/v) DMSO (dimethylsulfoxide, Duchefa Biochemie, Haarlem, the Netherlands), 0.1% (v/v) Tween® and the respective compound at a concentration of 3 mM. The control treatment contained 2.4% (v/v) DMSO, and 0.1% (v/v) Tween20. Further details are given in the Supplementary Information. […]
Experimental design and assessments of in planta experiments
We tested eleven compounds in a first experiment. In a follow-up experiment we tested selected […]
chalcone. Each treatment was repeated 12 times, except for oilseed rape in the second experiment (n=10). Pots were arranged in the growth chamber according to a fully randomized design. Initial growth of the second leaf of A. retroflexus plants was monitored by aquiring images of each plant from above from day zero to day two after treatment. Images were taken […]
from a fixed distance at 90° view angle using the camera Canon EOS 70D equipped with a Canon EF 14 mm/2.8 L II USM lens. Leaf area of single leaves was measured using the ImageJ software31, by drawing the leaf contours using a drawing tablet (Cintiq 22HD, Wacom Europe GmbH, Krefeld, Germany). Conversion of pixel to cm was achieved by using a target of known size inside the image. Six days after the treatment, half of the plants were harvested. Leaf area was assessed using a leaf area meter (LI3100C Area Meter, LI-Cor, Lincoln, Nebraska, USA) and samples were oven-dried at 65°C for seven days to obtain dry weight . Thirteen days after the treatment, this procedure was repeated with the second half of plants.
Chlorophyll fluorescence measurements […]
6 mm leaf discs were cut out of the second leaf and immediately placed into 96-well-plates filled with 300 µL 0.125 % Hoagland’s solution with 1 mM MES-KOH (MES-monohydrate, Merck, Darmstadt, Germany) buffered to a pH of 6.5. The treatment solution contained 1.6 % (v/v) DMSO, 0.1 % (v/v) Tween® 20 and 2',3',4',3,4-Pentahydroxychalcone at a concentration of 2 mM. The control treatment contained 1.6 % (v/v) DMSO, 0.1 % (v/v) Tween® 20. Each leaf disc was treated with 1.5 µL solution placed on top of the leaf discs. Plates were sealed with Parafilm and placed into a climate cabinet with 12h/12h day/night-length and a temperature of 22°C at a light intensity of 130 µmol m-2 s-1. 96 hours after treatment, chlorophyll fluorescence measurements were performed on leaf discs using an Imaging PAM M-Series fluorescence camera (Heinz Walz GmbH, Effeltrich, Germany). Leaf discs were dark adapted for 30 minutes, minimum and maximum chlorophyll fluorescence were obtained and leaf discs were illuminated for 30 minutes

[2] = tested on: Corynebacterium glutamicum ATCC13032; assay: Bacterial growth in microscale cultivation, C. glutamicum; format: cell-based; conditions: for activity at 0.3 µM / activity at 3 µM / activity at 30 µM / activity at 4 µM / activity at 40 µM / activity at 400 µM / activity at 55 µM / activity at 110 µM / activity at 550 µM: Corynebacterium glutamicum; for activity at 0.3 µM / activity at 3 µM / activity at 30 µM / Lag Phase / activity at 4 µM / activity at 40 µM / activity at 400 µM / activity at 55 µM / activity at 110 µM / activity at 550 µM: relative to control
Description: The following bacteria were cultivated in the presence of trans-chalcone derived inhibitors: Corynebacterium glutamicum ATCC13032[43], Escherichia coli K-12 MG1655[44], Pseudomonas putida KT2440[45], and Bacillus subtilis 168[46]. The growth of these bacteria was monitored in flower-well plates shaken at 1200 rpm as backscatter at 620 nm (gain 20) using a BioLector® microscale cultivation system (m2p labs, Baesweiler, Germany). For further experimental details please refer to the Supplementary Information.
medium or the appropriate minimal medium and shaken at 140 rpm overnight. For inoculation of
the main culture, cells equivalent to an optical density at 600 nm of 0.5 (C. glutamicum, E. coli,
and P. putida) or 0.25 (B. subtilis) in 800 µL medium were washed and resuspended in fresh
media. Inhibitor substances were dissolved in DMSO and added to the media to a final
Since the least polar trans-chalcone and 2’-hydroxychalcone precipitated in the growth media at
the highest concentrations, the maximal concentration of these compounds was reduced to 400
µM and 100 µM, respectively. The final backscatter at 620 nm, the growth rate (h-1), and the
duration of the lag phase of all cultures were determined in a BioLector microscale cultivation
system in comparison to negative controls supplemented with the solvent DMSO. A longer lag

[3] = ATCC13032, complex medium, 4 µM, read-out: Final Backscatter
[4] = ATCC13032, complex medium, 4 µM, read-out: Growth rate
[5] = ATCC13032, complex medium, 40 µM, read-out: Final Backscatter
[6] = ATCC13032, complex medium, 40 µM, read-out: Growth rate
[7] = ATCC13032, complex medium, 400 µM, read-out: Final Backscatter
[8] = ATCC13032, complex medium, 400 µM, read-out: Growth rate
[9] = ATCC13032, minimal medium, 4 µM, read-out: Final Backscatter
[10] = ATCC13032, minimal medium, 4 µM, read-out: Growth rate
[11] = ATCC13032, minimal medium, 40 µM, read-out: Final Backscatter
[12] = ATCC13032, minimal medium, 40 µM, read-out: Growth rate
[13] = ATCC13032, minimal medium, 400 µM, read-out: Final Backscatter
[14] = ATCC13032, minimal medium, 400 µM, read-out: Growth rate

SMILES | Influence on plants [1] | activity at 4 µM [2, 3] [%] | activity at 4 µM [2, 4] [%] | activity at 40 µM [2, 5] [%] | activity at 40 µM [2, 6] [%] | activity at 400 µM [2, 7] [%] | activity at 400 µM [2, 8] [%] | activity at 4 µM [2, 9] [%] | activity at 4 µM [2, 10] [%] | activity at 40 µM [2, 11] [%] | activity at 40 µM [2, 12] [%] | activity at 400 µM [2, 13] [%] | activity at 400 µM [2, 14] [%] | Lag Phase ([2]; complex medium, 4 µM) | Lag Phase ([2]; complex medium, 40 µM) | Lag Phase ([2]; complex medium, 400 µM) | Lag Phase ([2]; minimal medium, 4 µM) | Lag Phase ([2]; minimal medium, 40 µM) | Lag Phase ([2]; minimal medium, 400 µM) | other results
O=C(/C=C/c1cc(O)c(O)c(O)c1)c1ccc(O)cc1O [Compound 9, 2′,4′,3,4,5-Pentahydroxychalcone] | No | – | – | – | – | – | – | – | – | – | – | – | – | – | – | – | – | – | – | activity at 0.3 µM ([2]; ATCC13032, complex medium, 0.3 µM, read-out: Final Backscatter): 99.6%; activity at 0.3 µM ([2]; ATCC13032, complex medium, 0.3 µM, read-out: Growth rate): 104%; activity at 3 µM ([2]; ATCC13032, complex medium, 3 µM, read-out: Final Backscatter): 102%; activity at 3 µM ([2]; ATCC13032, complex medium, 3 µM, read-out: Growth rate): 111%; activity at 30 µM ([2]; ATCC13032, complex medium, 30 µM, read-out: Final Backscatter): 96.7%; activity at 30 µM ([2]; ATCC13032, complex medium, 30 µM, read-out: Growth rate): 112%; activity at 0.3 µM ([2]; ATCC13032, minimal medium, 0.3 µM, read-out: Final Backscatter): 99.9%; activity at 0.3 µM ([2]; ATCC13032, minimal medium, 0.3 µM, read-out: Growth rate): 104%; activity at 3 µM ([2]; ATCC13032, minimal medium, 3 µM, read-out: Final Backscatter): 96.9%; activity at 3 µM ([2]; ATCC13032, minimal medium, 3 µM, read-out: Growth rate): 103%; activity at 30 µM ([2]; ATCC13032, minimal medium, 30 µM, read-out: Final Backscatter): 97.7%; activity at 30 µM ([2]; ATCC13032, minimal medium, 30 µM, read-out: Growth rate): 97.3%; Lag Phase ([2]; complex medium, 0.3 µM): 98,5%; Lag Phase ([2]; complex medium, 3 µM): 98,0%; Lag Phase ([2]; complex medium, 30 µM): 94,5%; Lag Phase ([2]; minimal medium, 0.3 µM): 98,6%; Lag Phase ([2]; minimal medium, 3 µM): 98,6%; Lag Phase ([2]; minimal medium, 30 µM): 98,6%
O=C(/C=C/c1ccc(O)cc1)c1ccc(O)cc1O [Compound 6, 2′,4′,4-Trihydroxychalcone] | No | 99.8 | 99.5 | 98.2 | 101 | 97.7 | 79.8 | 100 | 101 | 101 | 97.7 | 101 | 80.5 | 99,3% | 101,3% | 105,3% | 98,5% | 101,5% | 127,6% | –
O=C(/C=C/c1ccccc1O)c1ccc(O)cc1O [Compound 7, 2′,4′,2-Trihydroxychalcone] | No | 100 | 99.1 | 98.3 | 98.8 | 110 | 91.2 | 98.1 | 102 | 101 | 98.7 | 94.3 | 52.9 | 101,6% | 106,3% | 141,2% | 100,0% | 103,0% | 181,9% | –
O=C(/C=C/c1ccccc1)c1cc(O)ccc1O [Compound 5, 2′,5′-Dihydroxychalcone] | No | – | – | – | – | – | – | – | – | – | – | – | – | – | – | – | – | – | – | growth ([2]; 550 μM, minimal media): abolished growth; activity at 55 µM ([2]; ATCC13032, complex medium, 55 µM, read-out: Final Backscatter): 106%; activity at 55 µM ([2]; ATCC13032, complex medium, 55 µM, read-out: Growth rate): 107%; activity at 110 µM ([2]; ATCC13032, complex medium, 110 µM, read-out: Final Backscatter): 103%; activity at 110 µM ([2]; ATCC13032, complex medium, 110 µM, read-out: Growth rate): 110%; activity at 550 µM ([2]; ATCC13032, complex medium, 550 µM, read-out: Final Backscatter): 118%; activity at 550 µM ([2]; ATCC13032, complex medium, 550 µM, read-out: Growth rate): 79%; activity at 55 µM ([2]; ATCC13032, minimal medium, 55 µM, read-out: Final Backscatter): 99.7%; activity at 55 µM ([2]; ATCC13032, minimal medium, 55 µM, read-out: Growth rate): 86.9%; activity at 110 µM ([2]; ATCC13032, minimal medium, 110 µM, read-out: Final Backscatter): 101%; activity at 110 µM ([2]; ATCC13032, minimal medium, 110 µM, read-out: Growth rate): 79.5%; activity at 550 µM ([2]; ATCC13032, minimal medium, 550 µM, read-out: Final Backscatter): 18.8%; Influence on bacterial growth ([2]; Minimal medium, highest concentration tested (10× IC50) if not stated otherwise): μ↓ (≥IC50), no growth (10× IC50); Lag Phase ([2]; complex medium, 55 µM): 96,2%; Lag Phase ([2]; complex medium, 110 µM): 98,4%; Lag Phase ([2]; complex medium, 550 µM): 120,7%; Lag Phase ([2]; minimal medium, 55 µM): 114,0%; Lag Phase ([2]; minimal medium, 110 µM): 133,1%

From publication PMC4893628, “Chalcone-based Selective Inhibitors of a C4 Plant Key Enzyme as Novel Potential Herbicides” (Scientific Reports, 2016)
